Assay results reported in patent publication US20090317444A1, “PROCESS FOR CELL PROLIFERATION” (BIOBERICA, S.A., priority 2006, published 2009).
“Also recorded” adds a separate entry of the source.

Experiments:
[1] = tested on: chondrocytes of bovine origin; test: Proliferation of chondrocytes measured through DNA levels (alginate beads); assay type: cell-based; details: 10 days culture in alginate beads; for effect on DNA levels per alginate bead (in words): 1, 5 and 10 mM, FIG. 1; for increase in DNA levels relative to the control (without compound): 10 mM
Experimental: Chondrocytes of bovine origin were isolated using digestion with collagenase following a previously described process (B. Beekman et al., Exp. Cell Res., 237, 135-141 (1997)).
The isolated bovine chondrocytes were cultured following a methodology described in the literature (J. DeGroot, et al., 266, 303-310 (2001)). The chondrocytes were transferred to an alginate support matrix, forming alginate beads which contain the cells at a concentration of 2.5×10^6 cells/ml, and DMEM (Dulbecco's Modified Eagle's Medium) with Glutamax was added to them supplemented with ascorbic acid, penicillin, streptomycin and FCS (foetal cow serum). After 24 hours, the medium was renewed and the chondrocytes contained in alginate beads (5 beads/well, with 250 μl of medium/well, in plates of 48 wells) were cultured in the absence (control) or presence of the compound to test (at concentrations of 1, 5 and 10 mM). The medium was regenerated twice a week. At the end of 10 days, the beads were collected (5 beads in each well, n=3 wells per condition) and they were stored at a temperature of −20° C. until making the analysis.
To quantify DNA levels, the beads were digested with papain and Hoechst 33258 (bisbenzimide) dye was used. DNA levels per alginate bead were determined.
(§1) The evaluation of the differences between all compounds and the control condition was assayed using analysis of variance (ANOVA). Then, the LSD test was performed to determine the difference between each compound and the control condition. They were considered statistically significant when p≦0.05.

bovine chondrocytes = test: Glycosaminoglycan content per chondrocyte (GAG with respect to DNA); assay type: cell-based; details: for effect on GAGs levels per chondrocyte (in words): 5 and 10 mM, FIG. 4
Experimental: Bovine chondrocytes were used as starting point and the same methodology was followed as in Example 1 (chondrocyte proliferation measured through DNA levels), but in this case each compound was tested at two concentrations (5 and 10 mM).
The GAG content was determined, after digestion with papain, with the Blyscan™ assay (kit) from Biocolor Ltd.
as §1

[2] = tested on: chondrocytes of bovine origin; test: Release of glycosaminoglycans from the chondrocytes in alginate beads after stimulation with IL-1β; assay type: cell-based; details: IL-1β 20 ng/ml, 48 hours; for effect on release of GAGs by the chondrocytes (in words): 10 mM, FIG. 2
Experimental: Chondrocytes of bovine origin were cultured for 21 days in alginate beads as support matrix; approximately 100 beads in 75 cm^2 culture dishes in 25 ml of medium, without adding the compounds to be tested. The medium was regenerated twice a week. After 21 days of culture, the beads were transferred to 48-well plates, 5 beads per well, 250 μl of medium per well. The compounds to be tested were added on day 21 (mannosamine hydrochloride, glucosamine hydrochloride and N-acetylglucosamine) to evaluate the effect on the degradation of the extracellular matrix after stimulation with IL-1β (20 ng/ml). Each compound was tested at concentrations of 1 and 10 mM. In each experiment each concentration was tested at n=3 wells, except in the control (n=8 wells). Once the alginate beads have been incubated with IL-1β (20 ng/ml) and the compounds during 48 hours, the culture medium was collected (day 21 to day 23). The GAGs content in the beads and in the culture medium on day 23 was measured (release of GAGs mediated by aggrecanase). The GAGs content was determined, after digestion with papain, with the Blyscan™ assay (kit) from Biocolor Ltd.
The results were expressed as a percentage of released GAGs with respect to total GAGs.
as §1

[3] = tested on: metalloprotease activity (MMP) of the chondrocytes; test: Metalloprotease activity of the chondrocytes in alginate beads after stimulation with IL-1β and activation with APMA; assay type: cell-based, bovine; details: IL-1β 20 ng/ml, 1 mM APMA
Experimental: Bovine chondrocytes were used as starting point and the methodology of the Example 2 was followed, but in this case each compound was tested at two concentrations (5 and 10 mM).
The chondrocytes were cultured for 21 days in alginate to produce extracellular matrix. After 2 days of stimulation with IL-1β and with or without compounds, the medium was renewed. The metalloprotease activity was then determined in the culture medium after 2 hours of incubation with 20 ng/ml of IL-1β, 1 mM of APMA and with or without the compounds. The metalloprotease activity was quantified using the substrate for metalloproteases TNO 211-F (I. Tchetverikov et al., Clin. Exp. Rheumatol. 21, 711-8 (2003)).
as §1

CC(=O)N[C@H]1C(O)O[C@H](CO)[C@@H](O)[C@@H]1O (stereo partly shown) [N-acetylglucosamine, reference compound] was tested, and the “effect on DNA levels per alginate bead (in words)” value [1] was “No significant effect” and the “effect on GAGs levels per chondrocyte (in words)” value (bovine chondrocytes) was “No significant effect”.

With CC(=O)N[C@@H]1C(O)O[C@H](CO)[C@@H](O)[C@@H]1O (stereo partly shown) [N-acetylmannosamine] the “increase of GAG content per chondrocyte with respect to the control (culture without product)” value (bovine chondrocytes; 10 mM) was 63% and the “effect on GAGs levels per chondrocyte (in words)” value (bovine chondrocytes) was “dose-dependent increase in GAGs levels per chondrocyte”.

In the case of Cl.N[C@H]1C(O)O[C@H](CO)[C@@H](O)[C@@H]1O (stereo partly shown) [glucosamine hydrochloride, reference compound], the “effect on release of GAGs by the chondrocytes (in words)” value [2] is reported as “reduced the release of GAGs”, the “increase in DNA levels relative to the control (without compound)” value [1] is reported as 4 times and the “effect on DNA levels per alginate bead (in words)” value [1] is reported as “dose-dependent increase in DNA levels”.

With Cl.N[C@@H]1C(O)O[C@H](CO)[C@@H](O)[C@@H]1O (stereo partly shown) [mannosamine hydrochloride] the “effect on release of GAGs by the chondrocytes (in words)” value [2] was “reduced the release of GAGs”, the “reduction of the release of GAGs with respect to the control (culture without compound)” value ([2]; upper concentration (10 mM)) was 30% and the “increase in DNA levels relative to the control (without compound)” value [1] was 10 times. The “effect on DNA levels per alginate bead (in words)” value ([1]; hydrochloride) was “highest levels of DNA/bead; also recorded: dose-dependent increase in DNA levels”, the “reduction in metalloprotease activity with respect to the control” value ([3]; 10 mM) was 30% and the “effect on metalloprotease activity (in words)” value ([3]; 5 and 10 mM, FIG. 3) was “the only one which reduced metalloprotease activity”.
